The record followed here is PMC4821443 (MedChemComm, 2015).

The test system of assay [1] is breast cancer subpanel (six cell lines). Nature of the assay: NCI-60 screen, breast cancer subpanel summary. To be noted: Homo sapiens, T47D, read-out: GI50 values range, breast cancer subpanel. The assay is classed as cell-based.
The target of assay [2] is tubulin (Sus scrofa, UniProt P02550+P02554). The experiment in a line: In vitro tubulin polymerization assay. The format is biochemical. To be noted: at concentrations as high as 200 µM (data not shown).
Assay [3] has as its system panel of 60 human cancer cell lines. Nature of the assay: NCI-60 cell line anti-cancer screen, whole panel summary. The assay is classed as cell-based. To be noted: read-out: average GI50 value against all the cancer cell lines screened, NCI-60 panel.

Chain of tubulin (P02550 whole entry): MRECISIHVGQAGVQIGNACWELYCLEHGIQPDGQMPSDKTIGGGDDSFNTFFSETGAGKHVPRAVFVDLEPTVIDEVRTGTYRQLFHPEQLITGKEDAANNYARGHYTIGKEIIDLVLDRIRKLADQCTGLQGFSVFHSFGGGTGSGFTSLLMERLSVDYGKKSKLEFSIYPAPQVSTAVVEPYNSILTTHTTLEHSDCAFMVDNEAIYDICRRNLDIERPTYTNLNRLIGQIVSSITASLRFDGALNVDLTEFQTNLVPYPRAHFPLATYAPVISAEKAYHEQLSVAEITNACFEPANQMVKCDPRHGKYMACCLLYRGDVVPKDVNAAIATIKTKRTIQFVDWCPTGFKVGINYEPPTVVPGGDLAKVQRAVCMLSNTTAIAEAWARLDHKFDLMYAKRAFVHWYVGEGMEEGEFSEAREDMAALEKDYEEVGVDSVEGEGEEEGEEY
Chain of tubulin (P02554 whole entry): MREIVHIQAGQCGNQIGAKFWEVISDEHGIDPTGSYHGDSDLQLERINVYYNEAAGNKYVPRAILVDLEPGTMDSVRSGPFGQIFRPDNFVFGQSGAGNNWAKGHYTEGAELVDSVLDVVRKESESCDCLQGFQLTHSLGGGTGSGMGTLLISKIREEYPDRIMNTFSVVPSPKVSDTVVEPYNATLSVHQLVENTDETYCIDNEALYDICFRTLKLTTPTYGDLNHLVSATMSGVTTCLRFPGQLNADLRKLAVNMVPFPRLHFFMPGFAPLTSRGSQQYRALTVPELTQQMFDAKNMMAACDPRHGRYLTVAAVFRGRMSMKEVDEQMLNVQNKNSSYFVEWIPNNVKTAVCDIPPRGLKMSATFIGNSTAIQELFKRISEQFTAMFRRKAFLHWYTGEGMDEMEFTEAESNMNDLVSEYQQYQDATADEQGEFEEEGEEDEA

With `COc1cc(-c2n[nH]nc2-c2cc3ccccc3s2)cc(OC)c1OC` [Compound 8a, 4-(benzo[b]thiophen-2-yl)-5-(3,4,5-trimeth-oxyphenyl)-2H-1,2,3-triazole], the concentration for 50% growth inhibition (GI50) in assay [1] is at most 14 nM. Consider `COc1cc(-c2nn(C)nc2-c2cc3ccccc3s2)cc(OC)c1OC` [Compound 9, 4-(benzo[b]thiophen-2-yl)-2-methyl-5-(3,4,5-trimethoxyphenyl)-2H-1,2,3-triazole], for which the “inhibition of tubulin polymerization” value in assay [2] is recorded as “failed to inhibit tubulin polymerization”. Besides, in assay [1], the GI50 lay in the range of 40 to 1600 nM. For `COc1ccc(-c2n[nH]nc2-c2csc3ccccc23)cc1OC` [Compound 11b], the GI50 in assay [1] fell in the range of 630 to 3210 nM. Turning to `COc1cc(-c2n[nH]nc2-c2c[nH]c3ccccc23)cc(OC)c1OC` [Compound 11d], the concentration for 50% growth inhibition (GI50) was 424 nM in assay [3] and 28 to 89 nM in assay [1].

As to `COc1cc(OC)cc(-c2n[nH]nc2-c2c[nH]c3ccccc23)c1` [Compound 11e], the results for the concentration for 50% growth inhibition (GI50) in assay [3] and in assay [1] were 856 nM and 17 to 76 nM, respectively.
